Measurements from ChEMBL document CHEMBL3351832, “Design and synthesis of lactam-thiophene carboxylic acids as potent hepatitis C virus polymerase inhibitors” (Bioorg Med Chem Lett, 2014).

Experiments:
[1] = Inhibition of purified Hepatitis C virus NS5B; parameters: species or system Hepacivirus hominis
Hepatitis C virus [2] = test: Antiviral activity against Hepatitis C virus genotype 1b by cell-based replicon assay; type: functional, Hepacivirus hominis
[3] = target: T1, Nuclear receptor subfamily 1 group I member 2 (Homo sapiens, UniProt O75469); test: Activation of PXR (unknown origin) at 10 uM by reporter gene assay relative to rifampicin; type: ADME
T1 sequence (O75469 whole entry): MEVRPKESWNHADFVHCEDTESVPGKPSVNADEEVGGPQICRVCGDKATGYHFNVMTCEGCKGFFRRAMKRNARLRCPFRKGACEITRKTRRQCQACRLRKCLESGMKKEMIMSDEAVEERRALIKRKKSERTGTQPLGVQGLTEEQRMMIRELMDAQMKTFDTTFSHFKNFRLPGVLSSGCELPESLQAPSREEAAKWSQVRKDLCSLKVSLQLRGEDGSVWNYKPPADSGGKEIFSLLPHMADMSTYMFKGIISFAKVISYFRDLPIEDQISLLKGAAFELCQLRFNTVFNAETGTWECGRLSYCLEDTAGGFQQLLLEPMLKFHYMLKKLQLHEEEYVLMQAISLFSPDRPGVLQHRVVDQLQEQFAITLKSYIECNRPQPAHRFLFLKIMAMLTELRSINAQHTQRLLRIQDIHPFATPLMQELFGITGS

Hepatocyte = test: Increase in CYP3A4 mRNA expression in human hepatocytes at 10 uM relative to rifampicin; type: ADME, cell-based
Cytochrome P450 3A4 = Cytochrome P450 3A4 (Homo sapiens, UniProt P08684); test: Increase in CYP3A4-mediated testosterone metabolism in human hepatocytes at 10 uM relative to rifampicin; type: ADME, cell-based, Hepatocyte
[4] = AUC in beagle dog at 0.3 mg/kg, iv; type: ADME, organism-based, Canis lupus familiaris; parameters: dose 0.3 mg/kg, route intravenous; conditions: plasma
[5] = Oral bioavailability in beagle dog at 3 mg/kg; type: ADME, organism-based, Canis lupus familiaris; conditions: in vivo
[6] = AUC in beagle dog at 3 mg/kg, po; type: ADME, organism-based, Canis lupus familiaris; parameters: dose 3 mg/kg, route oral; conditions: plasma
[7] = Volume of distribution at steady state in Sprague-Dawley rat at 1 mg/kg, iv; type: ADME, organism-based; parameters: dose 1 mg/kg, route intravenous; conditions: in vivo, read-out: Vdss
[8] = Half life in beagle dog at 0.3 mg/kg, iv; type: ADME, organism-based, Canis lupus familiaris; parameters: dose 0.3 mg/kg, route intravenous; conditions: in vivo
[9] = Clearance in beagle dog at 0.3 mg/kg, iv; type: ADME, organism-based, Canis lupus familiaris; parameters: dose 0.3 mg/kg, route intravenous; conditions: in vivo
[10] = AUC in Sprague-Dawley rat at 5 mg/kg, po; type: ADME, organism-based; parameters: dose 5 mg/kg, route oral; conditions: plasma
[11] = Clearance in Sprague-Dawley rat at 1 mg/kg, iv; type: ADME, organism-based; parameters: dose 1 mg/kg, route intravenous; conditions: in vivo
Hepatitis C virus [12] = test: Antiviral activity against Hepatitis C virus genotype 1a by cell-based replicon assay; conditions: subtype 1a
[13] = AUC in Sprague-Dawley rat at 1 mg/kg, iv; type: ADME, organism-based; parameters: dose 1 mg/kg, route intravenous; conditions: plasma
[14] = Half life in Sprague-Dawley rat at 1 mg/kg, iv; type: ADME, organism-based; parameters: dose 1 mg/kg, route intravenous; conditions: in vivo
[15] = Oral bioavailability in Sprague-Dawley rat at 5 mg/kg; type: ADME, organism-based; conditions: in vivo
[16] = Volume of distribution at steady state in beagle dog at 0.3 mg/kg, iv; type: ADME, organism-based, Canis lupus familiaris; parameters: dose 0.3 mg/kg, route intravenous; conditions: in vivo, read-out: Vdss
Hepatitis C virus [17] = test: Antiviral activity against Hepatitis C virus genotype 1b by cell-based replicon assay in presence of 40 % human serum

Chain of Cytochrome P450 3A4 (P08684 whole entry): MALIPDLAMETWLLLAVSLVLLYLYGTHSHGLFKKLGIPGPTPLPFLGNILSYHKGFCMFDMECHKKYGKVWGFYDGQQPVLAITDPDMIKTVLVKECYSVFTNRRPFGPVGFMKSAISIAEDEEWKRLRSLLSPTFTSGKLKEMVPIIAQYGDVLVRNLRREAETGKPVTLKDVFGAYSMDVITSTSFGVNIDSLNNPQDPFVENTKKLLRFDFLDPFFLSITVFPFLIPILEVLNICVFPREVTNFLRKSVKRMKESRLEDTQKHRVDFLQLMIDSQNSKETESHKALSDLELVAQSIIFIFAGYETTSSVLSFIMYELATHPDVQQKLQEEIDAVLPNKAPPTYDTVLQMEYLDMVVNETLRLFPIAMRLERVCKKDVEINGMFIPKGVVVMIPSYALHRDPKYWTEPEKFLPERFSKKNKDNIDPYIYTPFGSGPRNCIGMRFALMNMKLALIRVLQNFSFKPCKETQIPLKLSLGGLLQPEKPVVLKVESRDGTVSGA

SMILES | IC50 [1] [nM] | EC50 (Hepatitis C virus [2]) [nM] | Activity [3] [%] | also measured
Cc1ccc([C@H]2CC[C@H](C)CC2)n1-c1cc(-c2ccccc2)sc1C(=O)O | 1500 | > 33000 |  | 
Cc1ccc(C2CCCCC2)n1-c1cc(-c2ccccc2)sc1C(=O)O | 10500 | > 33000 |  | 
C[C@H]1CC[C@H](C2CCCC(=O)N2c2cc(-c3ccccc3)sc2C(=O)O)CC1 (some centres not stated) | 740 | 11600 |  | 
O=C(O)c1sc(-c2ccccc2)cc1N1C(=O)CCCC1C1CCCCC1 (configuration not stated) | 73 | 330 |  | 
O=C(O)c1sc(-c2ccccc2)cc1N1C(=O)CCCC1C1CCCC1 (configuration not stated) | 720 | 3700 |  | 
O=C(O)c1sc(-c2ccccc2)cc1N1C(=O)CCCC1C1CCOCC1 (configuration not stated) | > 10000 | > 33000 |  | 
O=C(O)c1sc(-c2ccccc2)cc1N1C(=O)CCCC1c1ccccc1 (configuration not stated) | 870 | 5800 |  | 
O=C(O)c1sc(-c2ccccc2)cc1N1C(=O)CCC1C1CCCCC1 (configuration not stated) | 180 | 640 |  | 
O=C(O)c1sc(-c2ccccc2)cc1N1C(=O)CC[C@H]1C1CCCCC1 | 120 | 390 |  | 
O=C(O)c1sc(-c2ccccc2)cc1N1C(=O)CC[C@@H]1C1CCCCC1 | > 10000 | > 33000 |  | 
CC(C)(C)C#Cc1cc(N2C(=O)CCC[C@H]2C2CCCCC2)c(C(=O)O)s1 | 10 | 12 | 141 | 
CC(C)(C)C#Cc1cc(N2C(=O)COC[C@H]2C2CCCCC2)c(C(=O)O)s1 | 3 | 17 | 87 | Activity (Hepatocyte): 66%; Activity (Cytochrome P450 3A4): 61%
CC(C)(C)C#Cc1cc(N2C(=O)C(C)(C)OC[C@H]2C2CCCCC2)c(C(=O)O)s1 | 2 | 5 | 145 | 
CC(C)(C)C#Cc1cc(N2C(=O)[C@H](CCCO)OC[C@H]2C2CCCCC2)c(C(=O)O)s1 | 35 | 83 |  | 
C[C@@H](O)C[C@H]1OC[C@@H](C2CCCCC2)N(c2cc(C#CC(C)(C)C)sc2C(=O)O)C1=O | 3 | 8 | 9 | AUC [4]: 1.45 µM·h; bioavailability [5]: 43%; AUC [6]: 6.3 µM·h; Vd [7]: 3 L/kg; half-life [8]: 5 h; clearance [9]: 7.7 mL/min/kg; AUC [10]: 10.6 µM·h; Activity (Cytochrome P450 3A4): 2%; clearance [11]: 14 mL/min/kg; EC50 (Hepatitis C virus [12]): 11 nM; AUC [13]: 2.76 µM·h; half-life [14]: 5.2 h; bioavailability [15]: 77%; Vd [16]: 0.7 L/kg; EC50 (Hepatitis C virus [17]): 44 nM
C[C@H](O)C[C@H]1OC[C@@H](C2CCCCC2)N(c2cc(C#CC(C)(C)C)sc2C(=O)O)C1=O | 2 | 30 | 4 | 
CC(C)N(c1cc(-c2ccccc2)sc1C(=O)O)C(=O)[C@H]1CC[C@H](C)CC1 | 60 | 270 |  | 
CC(C)(C)C#Cc1cc(N2C(=O)[C@@H](CCO)OC[C@H]2C2CCCCC2)c(C(=O)O)s1 (relative stereo) | 2 | 7 | 3 | AUC [4]: 2.08 µM·h; bioavailability [5]: 27%; AUC [6]: 5.68 µM·h; Vd [7]: 2.1 L/kg; half-life [8]: 3.8 h; clearance [9]: 5.6 mL/min/kg; AUC [10]: 3.37 µM·h; Activity (Cytochrome P450 3A4): 5%; clearance [11]: 27 mL/min/kg; AUC [13]: 1.42 µM·h; half-life [14]: 2 h; bioavailability [15]: 48%; Vd [16]: 0.3 L/kg
CC(C)(C)C#Cc1cc(N2C(=O)[C@H](CCO)OC[C@H]2C2CCCCC2)c(C(=O)O)s1 (relative stereo) | 12 | 66 |  | 
CC(C)(C)C#Cc1cc(N2C(=O)[C@@](C)(CCO)OC[C@H]2C2CCCCC2)c(C(=O)O)s1 (relative stereo) | 2 | 3 | 77 | 
CC(C)(C)C#Cc1cc(N2C(=O)[C@](C)(CCO)OC[C@H]2C2CCCCC2)c(C(=O)O)s1 (relative stereo) | 6 | 20 | 29 | 
CC(C)(C)C#Cc1cc(N2C(=O)[C@@H](CCCO)OC[C@H]2C2CCCCC2)c(C(=O)O)s1 (relative stereo) | 2 | 14 | 5 | AUC [4]: 2.34 µM·h; bioavailability [5]: 12%; AUC [6]: 2.92 µM·h; Vd [7]: 1.2 L/kg; half-life [8]: 2.4 h; clearance [9]: 5.4 mL/min/kg; AUC [10]: 2.11 µM·h; Activity (Cytochrome P450 3A4): 2%; clearance [11]: 38 mL/min/kg; AUC [13]: 0.984 µM·h; half-life [14]: 1.1 h; bioavailability [15]: 43%; Vd [16]: 0.1 L/kg
CC(C)(C)C#Cc1cc(N2C(=O)[C@@](C)(CCCO)OC[C@H]2C2CCCCC2)c(C(=O)O)s1 (relative stereo) | 2 | 11 | 34 | 
CC(C)(C)C#Cc1cc(N2C(=O)[C@](C)(CCCO)OC[C@H]2C2CCCCC2)c(C(=O)O)s1 (relative stereo) | 4 | 25 | 8 | 
